Experimental findings from US20160184795A1, “METHODS AND SYSTEMS FOR […]” (SHELL OIL COMPANY, priority 2014, published 2016) are described below.

Several values for one entry are separate records, joined by “and”; a condition that tells them apart may be missing. Equal values may be shown once.

The nature of this data set: Solubility of alkylphenol in water at digestion conditions. Particulars: 240 C, 15 bar N2, 30 g xylenol + 30 g deionized water, phases separated hot, consecutive samples via bottom dip tube. It counts as physicochemical. An excerpt: Stirring was stopped, and phases were allowed to separate while hot, before sampling of all reactor contents via consecutive withdrawal of samples via a bottom dip tube.

As for `Cc1cccc(C)c1O` [xylenol, 2,6-dimethylphenol], the “weight fraction of xylenol in water, individual samples withdrawn” value is 18.6 weight percent and 26 weight percent and 32 weight percent.
